Results published in the NIST ThermoML archive (doi:10.1021/je700438d).

Assay: mn = molality of the nth substance listed, in mol/kg
Conditions: Liquid, Vibrating tube method

[Cl-].[Li+] [lithium chloride] + CCO
Conditions | mass density [kg/m3]
298.15 K, 120 kPa, m1 = 2.88 | 865.97
298.15 K, 180 kPa, m1 = 0.3023 | 795.82
298.15 K, 210 kPa, m1 = 0.1049 | 789.29
298.15 K, 210 kPa, m1 = 1.222 | 823.5
298.15 K, 250 kPa, m1 = 0.5873 | 804.88
298.15 K, 410 kPa, m1 = 2.022 | 845.2
298.15 K, 5040 kPa, m1 = 0.3023 | 799.96
298.15 K, 5040 kPa, m1 = 2.88 | 869.78
298.15 K, 5120 kPa, m1 = 0.1049 | 793.51
298.15 K, 5230 kPa, m1 = 2.022 | 849.07
298.15 K, 5470 kPa, m1 = 1.222 | 827.84
298.15 K, 5520 kPa, m1 = 0.5873 | 809.31
298.15 K, 9820 kPa, m1 = 1.222 | 831.28
298.15 K, 10030 kPa, m1 = 0.1049 | 797.57
298.15 K, 10050 kPa, m1 = 2.022 | 852.76
298.15 K, 10240 kPa, m1 = 0.3023 | 804.22
298.15 K, 10320 kPa, m1 = 2.88 | 873.67
298.15 K, 10440 kPa, m1 = 0.5873 | 813.28
298.15 K, 14990 kPa, m1 = 1.222 | 835.2
298.15 K, 15030 kPa, m1 = 2.022 | 856.4
298.15 K, 15170 kPa, m1 = 0.5873 | 816.95
298.15 K, 15240 kPa, m1 = 0.1049 | 801.71
298.15 K, 15620 kPa, m1 = 0.3023 | 808.44
298.15 K, 15640 kPa, m1 = 2.88 | 877.37
298.15 K, 19040 kPa, m1 = 1.222 | 838.14
298.15 K, 19250 kPa, m1 = 0.5873 | 819.98
298.15 K, 20050 kPa, m1 = 0.3023 | 811.77
298.15 K, 20060 kPa, m1 = 0.1049 | 805.39
298.15 K, 20120 kPa, m1 = 2.022 | 859.94
298.15 K, 20610 kPa, m1 = 2.88 | 880.65
298.15 K, 25080 kPa, m1 = 2.88 | 883.43
298.15 K, 25410 kPa, m1 = 0.1049 | 809.29
298.15 K, 25460 kPa, m1 = 1.222 | 842.57
298.15 K, 25610 kPa, m1 = 2.022 | 863.54
298.15 K, 25640 kPa, m1 = 0.5873 | 824.52
298.15 K, 25840 kPa, m1 = 0.3023 | 815.92
298.15 K, 30060 kPa, m1 = 0.1049 | 812.53
298.15 K, 30080 kPa, m1 = 2.022 | 866.32
298.15 K, 30110 kPa, m1 = 0.5873 | 827.53
298.15 K, 30190 kPa, m1 = 1.222 | 845.65
298.15 K, 30410 kPa, m1 = 2.88 | 886.56
298.15 K, 30560 kPa, m1 = 0.3023 | 819.15
298.15 K, 35090 kPa, m1 = 2.88 | 889.13
298.15 K, 35410 kPa, m1 = 2.022 | 869.43
298.15 K, 35560 kPa, m1 = 0.5873 | 831.01
298.15 K, 35710 kPa, m1 = 0.1049 | 816.28
298.15 K, 35840 kPa, m1 = 0.3023 | 822.58
298.15 K, 35870 kPa, m1 = 1.222 | 849.13
298.15 K, 39820 kPa, m1 = 0.5873 | 833.6
298.15 K, 39910 kPa, m1 = 0.3023 | 825.1
298.15 K, 39940 kPa, m1 = 2.022 | 871.92
298.15 K, 39980 kPa, m1 = 0.1049 | 818.97
298.15 K, 39980 kPa, m1 = 2.88 | 891.64
298.15 K, 40070 kPa, m1 = 1.222 | 851.57
323.15 K, 120 kPa, m1 = 0.1049 | 767.47
323.15 K, 140 kPa, m1 = 0.3023 | 774.35
323.15 K, 180 kPa, m1 = 2.88 | 845.88
323.15 K, 230 kPa, m1 = 2.022 | 824.57
323.15 K, 240 kPa, m1 = 0.5873 | 783.81
323.15 K, 410 kPa, m1 = 1.222 | 802.86
323.15 K, 5030 kPa, m1 = 0.5873 | 788.42
323.15 K, 5070 kPa, m1 = 1.222 | 807.19
323.15 K, 5140 kPa, m1 = 0.1049 | 772.47
323.15 K, 5210 kPa, m1 = 0.3023 | 779.31
323.15 K, 5410 kPa, m1 = 2.022 | 829.25
323.15 K, 5410 kPa, m1 = 2.88 | 850.34
323.15 K, 10020 kPa, m1 = 0.1049 | 777.11
